Measured values taken from PubChem BioAssay AID2060340 (Molecular Pharmacology Branch, DTP, NCI, 2025).
One block for each compound: values may come before it.

System: 349418-098-R-PDC spheroids, viability, % test/control
Assay: Anticancer human tumor 349418-098-R-PDC patient-derived lung adenocarcinoma cell line growth inhibition [IpAb]
Conditions: spheroids with HUVEC and MSC; for viability, T/C: stronger effect = lower value
In short: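 Multi-cell spheroids of 60% tumour cells, 25% HUVEC and 15% MSC in ultra-low-attachment U-bottom wells, treated with agents combined with ipatasertib or abemaciclib. Half-log ranges top out near clinical Cmax, or 10 microM when Cmax is unknown.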

[1] = curve of first compound, second compound 0.01 µM
[2] = curve of first compound, second compound 0.0316 µM
[3] = curve of first compound, second compound 0.1 µM
[4] = curve of first compound, second compound 0.316 µM
[5] = curve of first compound, second compound 1 µM
[6] = second compound 0.01 µM, first compound 0.0316 µM
[7] = second compound 0.01 µM, first compound 0.1 µM
[8] = second compound 0.0316 µM, first compound 0.0316 µM
[9] = second compound 0.0316 µM, first compound 0.1 µM
[10] = second compound 0.1 µM, first compound 0.0316 µM
[11] = second compound 0.1 µM, first compound 0.1 µM
[12] = second compound 0.316 µM, first compound 0.0316 µM
[13] = second compound 0.316 µM, first compound 0.1 µM
[14] = second compound 1 µM, first compound 0.0316 µM
[15] = second compound 1 µM, first compound 0.1 µM
[16] = second compound 0.1 µM, first compound 0.316 µM
[17] = second compound 0.1 µM, first compound 1 µM
[18] = second compound 0.1 µM, first compound 3.16 µM
[19] = second compound 0.1 µM, first compound 10 µM
[20] = second compound 0.316 µM, first compound 0.316 µM
[21] = second compound 0.316 µM, first compound 1 µM
[22] = second compound 0.316 µM, first compound 3.16 µM
[23] = second compound 0.316 µM, first compound 10 µM
[24] = second compound 1 µM, first compound 0.316 µM
[25] = second compound 1 µM, first compound 1 µM
[26] = second compound 1 µM, first compound 3.16 µM
[27] = second compound 1 µM, first compound 10 µM
[28] = second compound 0.01 µM, first compound 0.316 µM
[29] = second compound 0.01 µM, first compound 1 µM
[30] = second compound 0.01 µM, first compound 3.16 µM
[31] = second compound 0.01 µM, first compound 10 µM
[32] = second compound 0.0316 µM, first compound 0.316 µM
[33] = second compound 0.0316 µM, first compound 1 µM
[34] = second compound 0.0316 µM, first compound 3.16 µM
[35] = second compound 0.0316 µM, first compound 10 µM
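Note: spheroids exposed to compounds for 7 days.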

Structure (SMILES): Cn1ncnc1[C@H]1c2n[nH]c(=O)c3cc(F)cc(c23)N[C@@H]1c1ccc(F)cc1 + CCN1CCN(Cc2ccc(Nc3ncc(F)c(-c4cc(F)c5nc(C)n(C(C)C)c5c4)n3)nc2)CC1
IC50 [1]: 54.1 nM | IC50 [2]: < 0.316 nM | IC50 [3]: < 0.316 nM | IC50 [4]: < 0.316 nM | IC50 [5]: < 0.316 nM | viability, T/C (second compound 0.01 µM, first compound 0.000316 µM): 70.5% | viability, T/C (second compound 0.01 µM, first compound 0.001 µM): 67.8% | viability, T/C (second compound 0.01 µM, first compound 0.00316 µM): 73.1% | viability, T/C (second compound 0.01 µM, first compound 0.01 µM): 64% | viability, T/C [6]: 55.2% | viability, T/C [7]: 44.5% | viability, T/C (second compound 0.0316 µM, first compound 0.000316 µM): 38.7% | viability, T/C (second compound 0.0316 µM, first compound 0.001 µM): 50.5% | viability, T/C (second compound 0.0316 µM, first compound 0.00316 µM): 52.7% | viability, T/C (second compound 0.0316 µM, first compound 0.01 µM): 36% | viability, T/C [8]: 36.5% | viability, T/C [9]: 25.2% | viability, T/C (second compound 0.1 µM, first compound 0.000316 µM): 28.1% | viability, T/C (second compound 0.1 µM, first compound 0.001 µM): 22.9% | viability, T/C (second compound 0.1 µM, first compound 0.00316 µM): 23.9% | viability, T/C (second compound 0.1 µM, first compound 0.01 µM): 23.2% | viability, T/C [10]: 17.5% | viability, T/C [11]: 16.4% | viability, T/C (second compound 0.316 µM, first compound 0.000316 µM): 14.6% | viability, T/C (second compound 0.316 µM, first compound 0.001 µM): 19.8% | viability, T/C (second compound 0.316 µM, first compound 0.00316 µM): 16.2% | viability, T/C (second compound 0.316 µM, first compound 0.01 µM): 17.8% | viability, T/C [12]: 16.9% | viability, T/C [13]: 13.1% | viability, T/C (second compound 1 µM, first compound 0.000316 µM): 16.2% | viability, T/C (second compound 1 µM, first compound 0.001 µM): 17.6% | viability, T/C (second compound 1 µM, first compound 0.00316 µM): 16.2% | viability, T/C (second compound 1 µM, first compound 0.01 µM): 13% | viability, T/C [14]: 14.9% | viability, T/C [15]: 12.8%

Structure (SMILES): C=CC(=O)N1CCN(c2nc(=O)n(-c3c(C)ccnc3C(C)C)c3nc(-c4c(O)cccc4F)c(F)cc23)C(C)C1 (stereo not given) + CC(C)NCC(C(=O)N1CCN(c2ncnc3c2C(C)CC3O)CC1)c1ccc(Cl)cc1
IC50 [3]: 4010 nM | IC50 [4]: 1000 nM | IC50 [5]: < 31.6 nM | IC50 (curve of first compound, second compound 3.16 µM): < 31.6 nM | IC50 (curve of first compound, second compound 10 µM): < 31.6 nM | viability, T/C [10]: 95.8% | viability, T/C [11]: 89.6% | viability, T/C [16]: 76.7% | viability, T/C [17]: 70.2% | viability, T/C [18]: 64.7% | viability, T/C [19]: 21.7% | viability, T/C [12]: 51.9% | viability, T/C [13]: 55.1% | viability, T/C [20]: 51.4% | viability, T/C [21]: 50.2% | viability, T/C [22]: 23.9% | viability, T/C [23]: 12.5% | viability, T/C [14]: 28.4% | viability, T/C [15]: 28.3% | viability, T/C [24]: 19.6% | viability, T/C [25]: 17.2% | viability, T/C [26]: 11.9% | viability, T/C [27]: 7.34% | viability, T/C (second compound 3.16 µM, first compound 0.0316 µM): 12.3% | viability, T/C (second compound 3.16 µM, first compound 0.1 µM): 13.3% | viability, T/C (second compound 3.16 µM, first compound 0.316 µM): 11.8% | viability, T/C (second compound 3.16 µM, first compound 1 µM): 10% | viability, T/C (second compound 3.16 µM, first compound 3.16 µM): 6.96% | viability, T/C (second compound 3.16 µM, first compound 10 µM): 5.34% | viability, T/C (second compound 10 µM, first compound 0.0316 µM): 6.48% | viability, T/C (second compound 10 µM, first compound 0.1 µM): 8.12% | viability, T/C (second compound 10 µM, first compound 0.316 µM): 6.94% | viability, T/C (second compound 10 µM, first compound 1 µM): 5.09% | viability, T/C (second compound 10 µM, first compound 3.16 µM): 5.95% | viability, T/C (second compound 10 µM, first compound 10 µM): 4.63%

IC50 (compound alone, run of 05/18/2021): 350 nM [middle of 13 runs]
Structure (SMILES): CC(C)NCC(C(=O)N1CCN(c2ncnc3c2C(C)CC3O)CC1)c1ccc(Cl)cc1 (stereo not given)
viability, T/C (compound 0.1 µM): 84.9% [middle of 13 runs] | viability, T/C (compound 1 µM): 24.5% [middle of 13 runs] | viability, T/C (compound 3.16 µM): 11.8% [middle of 13 runs] | viability, T/C (compound 10 µM): 7.07% [middle of 11 runs]

Structure (SMILES): Cn1ncc(Cl)c1-c1cc(C(=O)NC(CN)Cc2cccc(F)c2)sc1Cl (stereo not given) + CCN1CCN(Cc2ccc(Nc3ncc(F)c(-c4cc(F)c5nc(C)n(C(C)C)c5c4)n3)nc2)CC1
IC50 [1]: 49.8 nM | IC50 [2]: < 31.6 nM | IC50 [3]: < 31.6 nM | IC50 [4]: < 31.6 nM | IC50 [5]: < 31.6 nM | viability, T/C [6]: 63.1% | viability, T/C [7]: 28.6% | viability, T/C [28]: 17.1% | viability, T/C [29]: 9.53% | viability, T/C [30]: 6.15% | viability, T/C [31]: 0.1% | viability, T/C [8]: 36.9% | viability, T/C [9]: 18.1% | viability, T/C [32]: 9.18% | viability, T/C [33]: 7.63% | viability, T/C [34]: 5.83% | viability, T/C [35]: 0.14% | viability, T/C [10]: 21.3% | viability, T/C [11]: 12.5% | viability, T/C [16]: 8.7% | viability, T/C [17]: 6.91% | viability, T/C [18]: 5.88% | viability, T/C [19]: 0.09% | viability, T/C [12]: 16% | viability, T/C [13]: 12.5% | viability, T/C [20]: 8.98% | viability, T/C [21]: 6.46% | viability, T/C [22]: 4.96% | viability, T/C [23]: 0.19% | viability, T/C [14]: 14% | viability, T/C [15]: 11.7% | viability, T/C [24]: 9.07% | viability, T/C [25]: 8.54% | viability, T/C [26]: 3.59% | viability, T/C [27]: 0.24%

Structure (SMILES): Cn1nccc1Nc1nccc(-c2ccn(C(CO)c3ccc(Cl)c(F)c3)c(=O)c2)n1 (stereo not given) + CCN1CCN(Cc2ccc(Nc3ncc(F)c(-c4cc(F)c5nc(C)n(C(C)C)c5c4)n3)nc2)CC1
IC50 [1]: < 31.6 nM | IC50 [2]: < 31.6 nM | IC50 [3]: < 31.6 nM | IC50 [4]: < 31.6 nM | IC50 [5]: < 31.6 nM | viability, T/C [6]: 34.3% | viability, T/C [7]: 31.1% | viability, T/C [28]: 28.1% | viability, T/C [29]: 27.3% | viability, T/C [30]: 23.5% | viability, T/C [31]: 19.9% | viability, T/C [8]: 21.5% | viability, T/C [9]: 23% | viability, T/C [32]: 18.6% | viability, T/C [33]: 18% | viability, T/C [34]: 17.1% | viability, T/C [35]: 16.3% | viability, T/C [10]: 13.1% | viability, T/C [11]: 13.4% | viability, T/C [16]: 13.2% | viability, T/C [17]: 12.7% | viability, T/C [18]: 13.3% | viability, T/C [19]: 13.5% | viability, T/C [12]: 11.6% | viability, T/C [13]: 11.1% | viability, T/C [20]: 11.2% | viability, T/C [21]: 10.8% | viability, T/C [22]: 13% | viability, T/C [23]: 13.2% | viability, T/C [14]: 12.7% | viability, T/C [15]: 10.4% | viability, T/C [24]: 11.1% | viability, T/C [25]: 11.7% | viability, T/C [26]: 12.5% | viability, T/C [27]: 12.2%
